Experimental data reported in publication PMC13576449, “Small-Molecule Activators of PRMT1: Discovery, SAR Analyses, and Proapoptotic Effects in Pancreatic Cancer Cells” (Journal of Medicinal Chemistry, 2026).

Target: T1, FLAG-tagged PRMT6 (Homo sapiens, UniProt Q96LA8)
T1 construct: The complete ORFs of human PRMT3 and PRMT6 were inserted; made in house; host or cells: Sf9 insect cells (baculovirus)
Experiment: Fluorescence-based in vitro PRMT assay (F-PRMT assay), PRMT6
Format: biochemical
Details: Table S2; 100 µM compound, vs solvent control = 100%, n=3; racemates used
From the text: To evaluate the effects of the selected candidate molecules on the catalytic activity of type I enzymes, we employed a quantitative fluorescence-based in vitro PRMT activity (F-PRMT) assay using recombinant FLAG-tagged PRMT proteins expressed and affinity-purified from baculovirus-infected Sf9 cells (SI Figure S1, SI Figure S2A).
Human cell lines (PaTu8988T, PANC-1) were obtained from ATCC (American Type Culture Collection) and cultured in DMEM supplemented with 10% fetal calf serum (FCS, Gibco/BRL), 1% penicillin/streptomycin at 37 °C and 5% CO2. […] For PRMT1 inhibition, cells were treated with type I PRMT inhibitor MS023 hydrochloride (Biomol). For induction of genotoxic stress, cells were treated with gemcitabine (LC Laboratories). […] The following plasmids were used: pFASTBAC-FLAG-rat PRMT1, pFASTBAC-FLAG-mouse PRMT4, and pGEX-GAR. The complete ORFs of human PRMT3 and PRMT6 were inserted into the pFASTBAC HT-3xFLAG B vector via BamHI/HindIII and BamHI/XhoI sites, respectively.
For PRMT protein expression in insect cells, recombinant baculovirus (bacmid) was generated using the Bac-to-Bac baculovirus system (Invitrogen). Sf9 cells were transfected with bacmid DNA using X-tremeGENE HP DNA transfection reagent (Sigma-Aldrich) according to the manufacturer's instructions. After 3–5 days, supernatants were collected, filtered, and used to infect Sf9 cells to amplify the virus. After 2 rounds of virus amplification and estimation of the final P3 virus titer, the P3 virus (2–5 μL/10^6 cells) was applied for large-scale infection of 200 × 10^6 Sf9 cells in suspension culture at a density of 1 × 10^6 cells/mL. Cells were harvested 5–6 days post-infection by centrifugation at 500 g for 5 min at room temperature. Protein purification from baculovirus-infected Sf9 cells was performed as previously described. , Cells were lysed in BC buffer (20 mM HEPES pH 7.9, 250 mM NaCl, 10% (v/v) glycerin, 0.4 mM EDTA, 1 mM DTT) containing a protease inhibitor cocktail (Roche) by 3 freeze-thaw cycles. After centrifugation at 11,000 rpm (Sorval SS34 rotor) and 4 °C for 1 h, the supernatant (whole cell protein extract) was incubated with anti-FLAG M2 Affinity Gel (Cytiva) at 4 °C and under agitation for 4 h. Subsequently, beads were washed in BC buffer containing various NaCl concentrations (once in BC with 1 M NaCl, twice in BC with 500 mM NaCl, twice in BC with 250 mM NaCl and twice in BC with 100 mM NaCl). FLAG-tagged proteins were either maintained bead-bound as a 50% (v/v) slurry in BC buffer with 100 mM NaCl and stored at −80 °C or were eluted in the appropriate elution buffer (depending on the subsequent assay) containing 0.25 mg/mL 3xFLAG peptides (Sigma-Aldrich) at 4 °C for 30–45 min. To remove the FLAG-peptides from the eluate, dialysis was performed in elution buffer containing 10% (v/v) glycerol at 4 °C for 4–6 h using Slide-A-Lyzer Dialysis Devices (Thermo Fisher Scientific) according to the manufacturer’s recommendations.
In the first step, the fluorogenic substrate Nα-Benzoyl-L-arginine-7-amido-4-methylcoumarin (Bz-Arg-AMC, Sigma-Aldrich) undergoes methylation by PRMTs upon the addition of the cofactor SAM. In the second reaction step, trypsin cleaves the nonmethylated substrate, leading to the generation of the 7-amino-4-methylcoumarin product, which can be quantified by subsequent fluorescence measurement (excitation: 355 nm, emission: 460 nm). The first reaction was conducted with bead-bound PRMTs at a total volume of 100 μL. Each condition was performed as a technical triplicate to determine the mean and the standard deviation. […] For the negative controls, SAM was substituted with assay buffer. The incubation was continued at 37 °C and under agitation (1,000 rpm) for a duration of 2 h.

T1 sequence (Q96LA8 whole entry): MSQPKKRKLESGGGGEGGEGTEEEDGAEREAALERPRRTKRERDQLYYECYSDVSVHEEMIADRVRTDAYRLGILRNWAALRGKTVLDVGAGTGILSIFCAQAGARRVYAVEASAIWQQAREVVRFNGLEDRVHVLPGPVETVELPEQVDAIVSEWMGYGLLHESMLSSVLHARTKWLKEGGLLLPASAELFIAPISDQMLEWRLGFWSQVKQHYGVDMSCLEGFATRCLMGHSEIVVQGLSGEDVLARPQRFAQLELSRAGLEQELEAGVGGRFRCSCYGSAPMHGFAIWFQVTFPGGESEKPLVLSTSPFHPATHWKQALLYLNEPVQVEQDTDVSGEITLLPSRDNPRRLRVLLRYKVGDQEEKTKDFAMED

| SMILES | Experimental result (PRMT6) |
| --- | --- |
| CC(C)(C)c1cccc(OCCNC2CC(CN)C2)c1 (centres unmarked) [Compound K600JK008] | n.e. (did not significantly affect the catalytic activity of the intended PRMT (less than ±6% change or not significant p-value), are marked with n.e. (no effect)) |
| Nc1nccc(N2CC[C@@]3(CCCN(C4CCOCC4)C3=O)C2)n1 (racemic) [Compound K002JS009] | n.e. (did not significantly affect the catalytic activity of the intended PRMT (less than ±6% change or not significant p-value), are marked with n.e. (no effect)) |
| COc1cc(CNCCO)ccc1Oc1nnnn1-c1ccccc1 [Compound K002FT006] | n.e. (did not significantly affect the catalytic activity of the intended PRMT (less than ±6% change or not significant p-value), are marked with n.e. (no effect)) |
| NCCCCNCc1cc(Br)cs1 [Compound K002JS012] | n.e. (did not significantly affect the catalytic activity of the intended PRMT (less than ±6% change or not significant p-value), are marked with n.e. (no effect)) |
| Cc1nc(N)cc(NC[C@H]2CC(=O)N(c3ccccc3)C2)n1 (racemic) [Compound K002FT010] | n.e. (did not significantly affect the catalytic activity of the intended PRMT (less than ±6% change or not significant p-value), are marked with n.e. (no effect)) |
| COc1cccc(NC(=O)CNCCC(N)=O)c1 [Compound K002JS005] | n.e. (did not significantly affect the catalytic activity of the intended PRMT (less than ±6% change or not significant p-value), are marked with n.e. (no effect)) |
| COc1ccc(Cl)cc1NC(=O)[C@@H]1CCCN1 (racemic) [Compound K002JS001] | n.e. (did not significantly affect the catalytic activity of the intended PRMT (less than ±6% change or not significant p-value), are marked with n.e. (no effect)) |
| CCc1c(-c2cccc3ccccc23)nc2ccc(NC(=O)CN)cn12 [Compound K002FT014] | n.e. (did not significantly affect the catalytic activity of the intended PRMT (less than ±6% change or not significant p-value), are marked with n.e. (no effect)) |
| O=[N+]([O-])c1ccc(Sc2n[nH]c(Cc3ccccc3)n2)nc1 [Compound K002JS015] | n.e. (did not significantly affect the catalytic activity of the intended PRMT (less than ±6% change or not significant p-value), are marked with n.e. (no effect)) |
| COc1cc(CNCCN(C)C)ccc1OCc1nc(C)no1 [Compound K002FT011] | n.e. (did not significantly affect the catalytic activity of the intended PRMT (less than ±6% change or not significant p-value), are marked with n.e. (no effect)) |
| CC(C)N(CCCOCc1ccccc1)CC(=N)NO [Compound K600JK007] | n.e. (did not significantly affect the catalytic activity of the intended PRMT (less than ±6% change or not significant p-value), are marked with n.e. (no effect)) |
| CN1CC[C@@](O)(CNCCc2cccc(OC(F)(F)F)c2)C1 (racemic) [Compound K600JK012] | n.e. (did not significantly affect the catalytic activity of the intended PRMT (less than ±6% change or not significant p-value), are marked with n.e. (no effect)) |
| CNCC(=O)NCCc1ccc(OC)c(OC)c1 [Compound K002JS002] | n.e. (did not significantly affect the catalytic activity of the intended PRMT (less than ±6% change or not significant p-value), are marked with n.e. (no effect)) |
| Clc1ccc(N2CCN(c3ncnc4[nH]ccc34)CC2)nc1 [Compound K002FT013] | n.e. (did not significantly affect the catalytic activity of the intended PRMT (less than ±6% change or not significant p-value), are marked with n.e. (no effect)) |
| CCNc1nc(C)cc(NCCNC(=O)Cc2ccc(F)cc2)n1 [Compound K002FT003] | n.e. (did not significantly affect the catalytic activity of the intended PRMT (less than ±6% change or not significant p-value), are marked with n.e. (no effect)) |
| CN(C)CCNc1ncnc2cc(-c3ccc(F)cc3)sc12 [Compound K002FT005] | n.e. (did not significantly affect the catalytic activity of the intended PRMT (less than ±6% change or not significant p-value), are marked with n.e. (no effect)) |
| OC1(c2c[nH]nn2)CCN(CCOc2ccc(Cl)cc2)C1 (centres unmarked) [Compound K002JS017] | n.e. (did not significantly affect the catalytic activity of the intended PRMT (less than ±6% change or not significant p-value), are marked with n.e. (no effect)) |
| COc1cc(CNC(C)C)ccc1OCc1nc(C)no1 [Compound K002JS018] | n.e. (did not significantly affect the catalytic activity of the intended PRMT (less than ±6% change or not significant p-value), are marked with n.e. (no effect)) |
| CCN(CCCC(=O)Nc1cccc(C)c1)C1CNC1 [Compound K600JK005] | n.e. (did not significantly affect the catalytic activity of the intended PRMT (less than ±6% change or not significant p-value), are marked with n.e. (no effect)) |
| CN(C)CC(=O)Nc1cnccc1N1CCOCC1 [Compound K002FT018] | n.e. (did not significantly affect the catalytic activity of the intended PRMT (less than ±6% change or not significant p-value), are marked with n.e. (no effect)) |
| Cc1cc(NC(=O)CN(C)C)cc(N2CCN(C(C)C)CC2)c1 [Compound K002FT012] | n.e. (did not significantly affect the catalytic activity of the intended PRMT (less than ±6% change or not significant p-value), are marked with n.e. (no effect)) |
| COc1cc(CNCCNCCO)cc(Cl)c1OC(C)C [Compound K002FT001] | n.e. (did not significantly affect the catalytic activity of the intended PRMT (less than ±6% change or not significant p-value), are marked with n.e. (no effect)) |
| CN1CCC[C@H]1CCn1ccnc1-c1ccc2nonc2c1 (racemic) [Compound K002FT007] | n.e. (did not significantly affect the catalytic activity of the intended PRMT (less than ±6% change or not significant p-value), are marked with n.e. (no effect)) |
| CN[C@H](CO)c1cc(OC)ccc1Br (racemic) [Compound K002FT016] | n.e. (did not significantly affect the catalytic activity of the intended PRMT (less than ±6% change or not significant p-value), are marked with n.e. (no effect)) |
| COc1cc(CN2CCC(CN)C2)cc(Cl)c1OC (centres unmarked) [Compound K002JS010] | n.e. (did not significantly affect the catalytic activity of the intended PRMT (less than ±6% change or not significant p-value), are marked with n.e. (no effect)) |
| CCN(CC(=O)NCCc1cccc(Cl)c1)C1CNC1 [Compound K600JK006] | n.e. (did not significantly affect the catalytic activity of the intended PRMT (less than ±6% change or not significant p-value), are marked with n.e. (no effect)) |
| CNCC1CCN(Cc2cc(F)ccc2C)CC1 [Compound K002FT009] | n.e. (did not significantly affect the catalytic activity of the intended PRMT (less than ±6% change or not significant p-value), are marked with n.e. (no effect)) |
| Cc1cccc(-n2ncc3c(NCCN(C)C)ncnc32)c1 [Compound K002FT004] | n.e. (did not significantly affect the catalytic activity of the intended PRMT (less than ±6% change or not significant p-value), are marked with n.e. (no effect)) |

Same assay, conditions: Table S2; 100 µM compound; mean % difference vs solvent control (100%), n=3

| SMILES | Efficacy ±∆% (PRMT6) [%] |
| --- | --- |
| Cc1cc(NCCc2nc(C)cc(=O)[nH]2)nc(N2CCCCC2)n1 [Compound K002FT008] | -10 |
